Laboratory results as given in ChEMBL document CHEMBL5154884, “Discovery of a Novel Src Homology-2 Domain Containing Protein Tyrosine Phosphatase-2 (SHP2) and Cyclin-Dependent Kinase 4 (CDK4) Dual Inhibitor for the Treatment of Triple-Negative Breast Cancer” (J Med Chem, 2022).

Key:
CDK3/Cyclin E = CDK3/Cyclin E (Homo sapiens, UniProt Q00526); experiment: Inhibition of recombinant N-terminal GST/His6-fusion tagged human CDK3/Cyclin E expressed in Sf9 insect cells incubated for 20 mins followed by [33P]gamma-ATP addition and measured after 2 hrs by radiometric HotSpot Kinase assay
Chain of CDK3/Cyclin E (P24864 whole entry, the tested form may be a part): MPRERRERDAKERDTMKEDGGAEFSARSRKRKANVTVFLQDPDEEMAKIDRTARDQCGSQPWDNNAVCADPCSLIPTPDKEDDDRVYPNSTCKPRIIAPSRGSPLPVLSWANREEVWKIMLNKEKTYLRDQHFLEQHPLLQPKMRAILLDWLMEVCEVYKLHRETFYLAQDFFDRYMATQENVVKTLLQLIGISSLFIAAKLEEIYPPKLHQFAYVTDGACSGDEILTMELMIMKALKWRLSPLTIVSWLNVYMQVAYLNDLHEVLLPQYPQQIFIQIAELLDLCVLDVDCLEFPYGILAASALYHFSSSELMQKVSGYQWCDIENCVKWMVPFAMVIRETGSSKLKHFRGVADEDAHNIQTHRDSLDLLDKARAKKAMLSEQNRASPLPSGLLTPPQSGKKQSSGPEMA
Chain of CDK3/Cyclin E (Q00526 whole entry, the tested form may be a part): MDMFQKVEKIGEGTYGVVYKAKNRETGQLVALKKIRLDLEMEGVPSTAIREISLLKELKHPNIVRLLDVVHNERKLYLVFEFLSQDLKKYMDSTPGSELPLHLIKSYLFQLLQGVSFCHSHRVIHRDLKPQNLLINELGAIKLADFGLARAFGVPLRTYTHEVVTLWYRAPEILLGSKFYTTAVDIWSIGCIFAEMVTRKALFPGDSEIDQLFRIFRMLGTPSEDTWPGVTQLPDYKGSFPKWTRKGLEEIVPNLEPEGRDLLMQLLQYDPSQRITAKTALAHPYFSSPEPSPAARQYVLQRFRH

MDA-MB-231 = experiment: Induction of apoptosis in human MDA-MB-231 cells assessed as early apoptotic cells at 3 uM measured after 48 hrs by Annexin V-FITC/PI staining based flow cytometric analysis (reference value: 0.32%); assay type: functional

With `Cc1nc2c(F)cc(-c3nc(Nc4nccc(Sc5cnc(N6CCC7(CC6)CO[C@@H](C)[C@H]7N)cn5)c4Cl)ncc3F)cc2n1C(C)C` the IC50 (CDK3/Cyclin E) was > 1000 nM and the Activity (MDA-MB-231) was 9.46%.
